Data as given in patent publication US8192962B2, “Processes for detecting toxic substances” (Daikin Industries, Ltd., priority 2001, dated 2012).

System: Mitochondria-located protein genes
Assay: DNA chip mRNA expression in yeast, mitochondria-located protein genes (Table 2)
Type: cell-based, Saccharomyces cerevisiae S288C
Conditions: cells incubated two hours with the chemical substance
Method in brief: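 S. cerevisiae S288C grown at 25° C in YPD were exposed in log phase for two hours to one toxic chemical at a growth-inhibiting, non-lethal concentration; untreated cells served as control. Poly(A) mRNA was reverse-transcribed with Cy3/Cy5-dUTP and hybridized to a whole-genome yeast DNA chip at 65° C for over 12 hours; values are fluorescence ratios versus untreated.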

CCCCC[C@H](O)CC(=O)CCc1ccc(O)c(OC)c1 [(13), gingerol]
The level of expressed mRNA in the presence of chemical substance/The level of expressed mRNA in the absence of chemical substance (yeast gene YAL039C): 1.6 | The level of expressed mRNA in the presence of chemical substance/The level of expressed mRNA in the absence of chemical substance (yeast gene YAL044C): 1.1 | The level of expressed mRNA in the presence of chemical substance/The level of expressed mRNA in the absence of chemical substance (yeast gene YBR291C): 1.0 | The level of expressed mRNA in the presence of chemical substance/The level of expressed mRNA in the absence of chemical substance (yeast gene YCL009C): 1.6 | The level of expressed mRNA in the presence of chemical substance/The level of expressed mRNA in the absence of chemical substance (yeast gene YDL067C): 0.6 | The level of expressed mRNA in the presence of chemical substance/The level of expressed mRNA in the absence of chemical substance (yeast gene YDR268W): 1.0 | The level of expressed mRNA in the presence of chemical substance/The level of expressed mRNA in the absence of chemical substance (yeast gene YDR377W): 0.7 | The level of expressed mRNA in the presence of chemical substance/The level of expressed mRNA in the absence of chemical substance (yeast gene YDR529C): 0.7 | The level of expressed mRNA in the presence of chemical substance/The level of expressed mRNA in the absence of chemical substance (yeast gene YGL068W): 1.0 | The level of expressed mRNA in the presence of chemical substance/The level of expressed mRNA in the absence of chemical substance (yeast gene YGL187C): 0.7 | The level of expressed mRNA in the presence of chemical substance/The level of expressed mRNA in the absence of chemical substance (yeast gene YGL191W): 1.1 | The level of expressed mRNA in the presence of chemical substance/The level of expressed mRNA in the absence of chemical substance (yeast gene YGR029W): 1.0 | The level of expressed mRNA in the presence of chemical substance/The level of expressed mRNA in the absence of chemical substance (yeast gene YGR112W): 1.1 | The level of expressed mRNA in the presence of chemical substance/The level of expressed mRNA in the absence of chemical substance (yeast gene YGR220C): 1.1 | The level of expressed mRNA in the presence of chemical substance/The level of expressed mRNA in the absence of chemical substance (yeast gene YHR037W): 1.1 | The level of expressed mRNA in the presence of chemical substance/The level of expressed mRNA in the absence of chemical substance (yeast gene YIL070C): 0.7 | The level of expressed mRNA in the presence of chemical substance/The level of expressed mRNA in the absence of chemical substance (yeast gene YIL094C): 0.7 | The level of expressed mRNA in the presence of chemical substance/The level of expressed mRNA in the absence of chemical substance (yeast gene YJL096W): 0.7 | The level of expressed mRNA in the presence of chemical substance/The level of expressed mRNA in the absence of chemical substance (yeast gene YKL150W): 1.8 | The level of expressed mRNA in the presence of chemical substance/The level of expressed mRNA in the absence of chemical substance (yeast gene YKL194C): 1.1 | The level of expressed mRNA in the presence of chemical substance/The level of expressed mRNA in the absence of chemical substance (yeast gene YLL001W): 1.7 | The level of expressed mRNA in the presence of chemical substance/The level of expressed mRNA in the absence of chemical substance (yeast gene YMR023C): 1.1 | The level of expressed mRNA in the presence of chemical substance/The level of expressed mRNA in the absence of chemical substance (yeast gene YMR203W): 1.1 | The level of expressed mRNA in the presence of chemical substance/The level of expressed mRNA in the absence of chemical substance (yeast gene YMR267W): 0.7 | The level of expressed mRNA in the presence of chemical substance/The level of expressed mRNA in the absence of chemical substance (yeast gene YNL284C): 1.0 | The level of expressed mRNA in the presence of chemical substance/The level of expressed mRNA in the absence of chemical substance (yeast gene YOR187W): 0.7 | The level of expressed mRNA in the presence of chemical substance/The level of expressed mRNA in the absence of chemical substance (yeast gene YOR316C): 1.6 | The level of expressed mRNA in the presence of chemical substance/The level of expressed mRNA in the absence of chemical substance (yeast gene YPL215W): 0.7 | The level of expressed mRNA in the presence of chemical substance/The level of expressed mRNA in the absence of chemical substance (yeast gene YPR134W): 1.1
